The values that follow come from PMC11360180, “Enhancement of Antimicrobial Function by L/D-Lysine Substitution on a Novel Broad-Spectrum Antimicrobial Peptide, Phylloseptin-TO2: A Structure-Related Activity Research Study” (Pharmaceutics, 2024).

pIC50: −log10 of the molar value. Where no end group is shown, it is not given here.

The subject of data set [1] is S. aureus (ATCC 6538). Type of data set: cell-based, Staphylococcus aureus. Conditions: ATCC 6538, 24 h. From the text: (§1) Seven microorganism strains were used to preliminarily evaluate the antimicrobial activity of PSTO2 and its analogues, including Staphylococcus aureus (S. aureus) (ATCC® 6538), methicillin-resistant Staphylococcus aureus (MRSA) (NCTC® 12493), Enterococcus faecalis (E. faecalis) (NCTC® 12697), E. coli (ATCC® 8739), Klebsiella pneumonia (K. pneumonia) (ATCC® 43816), Pseudomonas aeruginosa (P. aeruginosa) (ATCC® CRM 9027), Acinetobacter baumanni (A. baumanni) (BAA® 747), and Candida albicans (C. albicans) (ATCC® 10231). In this study, the strains were cultured in Mueller–Hinton broth (MHB), nutrient broth (NB), and yeast–peptone–dextrose broth (YPD-B) correspondingly at 37 °C, with shaking at 120 rpm. Each peptide was dissolved from 128 μM to 1 μM and mixed with the bacterium at 5 × 10^5 CFU/mL. In this process, bacteria with culture medium were used as the growth control group; PBS was set up as the vehicle control group; sterile culture medium was used as the blank control group; and Norfloxacin at a concentration of 2 mg/mL and amphotericin B at a concentration of 1 mg/mL were set up as the positive control group for bacteria and fungi, respectively.
(§2) After being incubated for 24 h, a Synergy HT plate reader (Bio-Tek, Shoreline, WA, USA) was used to detect the absorbance of each well in the 96-well plate at λ = 550 nm. The concentration at which no visible turbidity could be recorded was the MIC value. Beginning from the MIC value, 10 µL of solution in each clear well was dropped on the sterile agar plates. The plate was checked the next day for colony formation, and the lowest concentration at which no colony growing was recorded as an MBC value.

Data set [2] has as its system A. baumannii (BAA 747). Type of data set: cell-based, Acinetobacter baumanni. The conditions noted are these: BAA 747, 24 h.
Description: as §1, §2

Data set [3] deals with K. pneumonia (ATCC 43816). Type of data set: cell-based, Klebsiella pneumonia. The conditions noted are these: ATCC 43816, 24 h.
Description: as §1, §2

Data set [4] deals with P. aeruginosa (ATCC 9027). Type of data set: cell-based, Pseudomonas aeruginosa. Conditions: ATCC 9027, 24 h.
Description: as §1, §2

Data set [5] deals with C. albicans. Type of data set: cell-based, Candida albicans. The conditions noted are these: 24 h.
Description: as §1, §2

In data set [6] the test system is MRSA (ATCC 12493) biofilm. Type of data set: cell-based, methicillin-resistant Staphylococcus aureus. Conditions: ATCC 12493, 24 h. On the procedure:
To test the anti-biofilm ability of PSTO2 and its analogues, three types of microorganisms (S. aureus ATCC® 6538, E. coli ATCC® 8739, and MRSA NCTC® 12493) were chosen. Tryptic soy broth (TSB) and Lysogeny broth (LB) were used to culture microorganisms. The peptide was dissolved in an autoclaved PBS solution and diluted into concentrations ranging from 51,200 µM to 100 µM. One µL of peptide solution of each concentration was added into a 96-well plate with 100 µL bacterium at 5 × 10^5 CFU/mL. The plate was incubated at 37 °C for 24 h, with shaking at 200 rpm. After overnight incubation, the planktonic bacteria were washed up. Then, 100 µL of methanol was used to fix the biofilms onto the bottom, and 100 µL of 0.1% crystal violet solution (Sigma-Aldrich, Gillingham, UK) was added to each well to stain the biofilms. After drying, 160 µL of acetic acid (30% in deionised water, Sigma-Aldrich, UK) was added to each well to dissolve the shaded parts. The absorbance was detected with the Synergy HT plate reader at λ = 595 nm.
For the MBEC assay, 100 µL of the bacterium of 5 × 10^5 CFU/mL was transferred into an empty 96-well plate, and the plate was incubated at 37 °C for 24 h to obtain the biofilms primarily. Then, the peptide solution from 512 µM to 1 µM was transferred into a corresponding well, followed by 24 h incubation at 37 °C, with shaking at 200 rpm. After this, the plate was handled using the identical method to the plate in the MBIC assay, and the absorbance of each well was detected with the Synergy HT plate reader at λ = 595 nm. The minimum concentration at which the peptide can eradicate the existing biofilm was recorded as the MBEC value.

Data set [7] has as its system MCF-7. The format is cell-based, human. Conditions: 24 h. On the procedure: (§3) The percentage of cancer cell survival after being treated with peptides was assessed with 3-(4,5-dimethylthiazol-2-yl-)-2,5-diphenyltetrazolium bromide (MTT). The principle is the reduction process of the yellow tetrazolium to DMSO-soluble formazan crystals caused by the metabolic capability of living cells. All the cancerous and normal cells were obtained from the American Type Culture Collection (Rockville, VA, USA). Human lung cancer NCI-H838 and NCI-H460 were cultured in Roswell Park Memorial Institute (RPMI)-1640 medium (Gibco, Paisley, UK) and mixed with 10% (v/v) fetal bovine serum (FBS) (Gibco, Campinas, Brazil) and 1% penicillin–streptomycin (Gibco, Grand Island, NY, USA) 89/10/1 v/v/v). U251MG and MCF-7 were cultured in Dulbecco’s Modified Eagle medium (DMEM) (Gibco, Paisley, UK) and mixed with 10% FBS and 1% penicillin–streptomycin. HCT 116 was cultured in McCoy’s 5A (modified) medium (Gibco, Paisley, UK) and mixed with 10% FBS and 1% penicillin–streptomycin. MRC-5 and HaCat were cultured in Minimum Essential Medium (MEM) (Gibco, Paisley, UK) and mixed with 10% FBS and 1% penicillin–streptomycin. Cells were cultured and seeded in a 96-well plate at a density of 8000 cells/well with the corresponding medium and incubated for 24 h at 37 °C with 5% CO2. After 24 h of incubation, the cells were starved with a serum-free medium for 4 h at 37 °C. Then, the cells were incubated with different concentrations of peptide solution in a serum-free medium from 1 nM to 100 µM at 37 °C for 24 h. Meanwhile, triton X-100 (0.1%) (Sigma-Aldrich, St. Louis, MO, USA) and PBS were chosen as positive and negative controls. After 10 µL of MTT (5 mg/mL) was added to each well away from light and incubated at 37 °C for 2 h, the formazan generated by mitochondria was dissolved with DMSO. The absorbance was detected at a wavelength of 570 nm by a Synergy HT plate reader (Bio-Tek, Shoreline, WA, USA).

Data set [8] deals with NCI-H460. The format is cell-based, human. The conditions noted are these: 24 h. On the procedure:
as §3

In data set [9] the test system is NCI-H838. The format is cell-based, human. The conditions noted are these: 24 h. On the procedure: as §3
Data set [10] relates to U251MG. The format is cell-based, human. Conditions: 24 h. The protocol:
as §3

Data set [11] concerns HaCat. The format is cell-based. Conditions: 24 h. The protocol: as §3
Data set [12] has as its system MRC-5. Type of data set: cell-based. The conditions noted are these: 24 h. The protocol:
as §3

Data set [13] deals with horse red blood cells. The format is cell-based. On the procedure:
To assess the haemolytic activity of PSTO2 and its analogues, 2% fresh defibrinated horse red blood cells (TCS Biosciences Ltd., Buckingham, UK) were acquired after being washed and resuspended in sterile PBS. Each peptide was dissolved in PBS to prepare solutions with concentrations ranging from 2 µM to 1024 µM. Subsequently, 100 µL of each peptide solution was mixed with 100 µL of the red blood cell suspension. The red blood cells treated with 1% triton X-100 and sterile PBS in equivalent volumes were set up as the positive and negative control groups, respectively. Then, all the samples were incubated at 37 °C for 2 h. Thereafter, the samples were centrifuged at 900× g for 10 min. Finally, 100 µL of supernatant of each sample was transferred into a 96-well plate, and the absorbance was recorded by a Synergy HT plate reader (Bio-Tek, Shoreline, WA, USA) at a wavelength of 570. The following equation was used to calculate haemolysis activity:Haemolysis activity = (Sample absorbance − Ab)/(Ap − Ab) × 100% where Ab refers to the mean value of absorbance of the negative control (incubated with PBS only), and Ap refers to the mean absorbance value of the positive control (incubated with triton X-100).

In the case of “FLSLIPHAISAVSALAKHL-NH2 [PSTO2, phylloseptin-TO2]”, the MBC in data set [1] was 4 µM; in data set [2] it was greater than 128 µM; in [3], 128 µM; in [4], greater than 128 µM; in data set [5], 128 µM. Further, the MIC in data set [2] is greater than 128 µM; in [3] it was 64 µM; in [4], greater than 128 µM; in data set [5], 32 µM. For the same substance, in data set [6], the MBIC was determined as 4 µM. In addition, the pIC50 is 4.64 in data set [7], 4.11 in data set [8], 4.07 in [9] and 4.08 in data set [10]. The results for the 50% inhibitory concentration (IC50) in [11] and in data set [12] were 70.58 µM and 73.22 µM, respectively. The HC10 in data set [13] is given as 21.78.

Usually MIC stands for the lowest concentration found to suppress growth. For orientation: pIC50 means the IC50 on a negative log10 scale, so that one unit is a factor of ten. The term IC50 denotes the point on the concentration scale where inhibition reaches its midpoint.
